In the series the target is T1, Alkaline phosphatase, calf intestinal (ALP) (Bos taurus, UniProt P19111).
T1 construct: purchased New England BioLabs (printed 'NEW ENGLANK BioLabs Inc.') M0290
Kind of series: Stability of phosphate/phosphonate group in the presence of ALP (HPLC). The series is classed as in vitro ADME. Particulars: 10 U mL^−1 ALP (calf intestinal), half an hour; peptide assemblies; HPLC read-out. Here is the method: Figure 2 Characterization of LCPSs and their self‐assembly. a) FTIR characterization of different molecular structures among the LCPS peptides with a concentration of 10 mg mL^−1 LCPS assembly solution. b) Negatively stained TEM images showing the self‐assembled structures of LCPS‐OH, LCPS‐OP, and LCPS‐CP at pH 3.0, 5.0, 7.0, and 9.0. c) Zeta potential values of LCPSs at pH 7. The data are the means ± SD (n = 3 repeats per group). d) CD spectra of LCPS‐OH, LCPS‐OP, and LCPS‐CP assembly solutions (10 mg mL^−1) at pH 7. Self‐assembly of e) LCPS‐OP and f) LCPS‐CP after the addition of ALP. g) HPLC charts chromatograms of LCPS solutions with or without the addition of ALP. The LCPSs were incubated with 10 U mL^−1 ALP for half an hour.
The aggregated peptides were mineralized in the neutral condition directly as mentioned above, in the presence of 10 U mL^−1 ALP (calf‐intestinal). After assembling, 10 µL of the peptide assembly solution was diluted with equal volume of ddH2O. Then, 100 µL of the 1.35 × 10^−3 M CaCl2 solution containing 10 U mL^−1 ALP was added into the peptide assembly solution, and the resultant mixed solution was vibrated for 1 h to ensure the binding of calcium ions with the peptide aggregates. Next, 100 µL of the 0.81 × 10^−3 M K2HPO4 solution containing 10 U mL^−1 ALP was added dropwise for about 1 h while vibrating. […]

Non-standard residues stand in square brackets, D forms with d. Residues, ends and D or L forms follow the SMILES beside them. pS = N[C@@H](COP(=O)(O)O)C(=O)O

T1 sequence (P19111 20-533): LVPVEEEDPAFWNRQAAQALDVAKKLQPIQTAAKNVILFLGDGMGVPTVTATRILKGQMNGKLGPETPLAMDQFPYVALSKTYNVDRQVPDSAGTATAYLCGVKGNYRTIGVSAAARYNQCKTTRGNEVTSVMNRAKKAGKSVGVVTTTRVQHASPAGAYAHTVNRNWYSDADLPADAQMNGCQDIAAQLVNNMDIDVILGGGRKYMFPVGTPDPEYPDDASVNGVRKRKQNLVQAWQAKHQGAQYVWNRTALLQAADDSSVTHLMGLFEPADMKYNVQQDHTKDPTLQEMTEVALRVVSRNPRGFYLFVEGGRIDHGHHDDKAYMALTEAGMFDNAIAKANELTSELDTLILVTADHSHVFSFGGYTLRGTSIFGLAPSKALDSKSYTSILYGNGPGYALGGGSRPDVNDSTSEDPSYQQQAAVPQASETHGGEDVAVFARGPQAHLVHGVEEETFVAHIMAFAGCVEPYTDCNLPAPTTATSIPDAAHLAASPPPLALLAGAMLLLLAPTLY

With `N[C@@H](CO)C(=O)N[C@@H](Cc1ccc(O)cc1)C(=O)N[C@@H](COP(=O)(O)O)C(=O)NCC(=O)N[C@@H](Cc1ccc(O)cc1)C(=O)N[C@@H](CO)C(=O)O` [LCPS‐OP] (H-SY[pS]GYS-OH), the “stability of phosphate/phosphonate group in the presence of ALP” value is recorded as “completely hydrolyzed”.

The values are drawn from PMC8867149, “Phosphorylated and Phosphonated Low‐Complexity Protein Segments for Biomimetic Mineralization and Repair of Tooth Enamel” (Advanced Science, 2022).
